Laboratory results as given in BindingDB's records for doi:10.1021/np200603g (Yunnan University, 2011).

Biological target: T1, Programmed cell death protein 4 (Homo sapiens, UniProt Q53EL6)
T1 sequence (Q53EL6 whole entry): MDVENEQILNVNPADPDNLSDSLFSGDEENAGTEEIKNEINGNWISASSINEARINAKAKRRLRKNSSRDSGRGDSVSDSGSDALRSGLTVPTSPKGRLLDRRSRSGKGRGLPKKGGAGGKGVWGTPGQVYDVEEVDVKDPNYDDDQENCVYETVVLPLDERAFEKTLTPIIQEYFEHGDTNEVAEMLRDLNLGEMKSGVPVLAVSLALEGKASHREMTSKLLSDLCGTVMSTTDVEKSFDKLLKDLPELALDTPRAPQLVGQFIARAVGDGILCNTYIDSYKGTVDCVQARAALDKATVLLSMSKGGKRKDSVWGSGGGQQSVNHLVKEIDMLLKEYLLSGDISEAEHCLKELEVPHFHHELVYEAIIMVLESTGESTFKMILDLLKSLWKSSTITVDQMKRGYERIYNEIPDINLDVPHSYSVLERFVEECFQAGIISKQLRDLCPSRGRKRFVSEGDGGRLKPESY
Test: Stabilization of Pdcd4 expressed in human HEK293 cells assessed as inhibition of TPA-induced degradation by luciferase reporter assay

`Nc1ncnc2c1ccn2[C@@H]1O[C@H](CO)[C@@H](O)[C@H]1O` ['2-(4-AMINO-PYRROLO[2,3-D]PYRIMIDIN-7-YL)-5-HYDROXYMETHYL-TETRAHYDRO-FURAN-3,4-DIOL] was tested, and the IC50 was 880 nM.
